Source: ChEMBL document CHEMBL1201862, “PubChem BioAssay data set” (2004)
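Assay format: 96-well plates, 48-hour exposure. GI50 = concentration required for 50% inhibition of growth.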 The source made the active and inactive calls. Rule as the data show it: active = GI50 up to about 1.1 µM and inactive = higher.

Columns and labels:
Assay in all cases: inhibition of tumour cell growth, NCI panel, 48 h
HL-60 = system: HL-60
PC-3 = system: PC-3
OVCAR-4 = system: OVCAR-4
HT-29 = system: HT-29
MDA-MB-231 = system: MDA-MB-231
KM12 = system: KM12
SF-539 = system: SF-539
HCT-15 = system: HCT-15
NCI/ADR-RES = system: NCI/ADR-RES
K562 = system: K562
RXF 393 = system: RXF 393
U-251 = system: U-251
UO-31 = system: UO-31
SK-MEL-2 = system: SK-MEL-2
SF-268 = system: SF-268
IGROV-1 = system: IGROV-1
SK-MEL-28 = system: SK-MEL-28
SK-OV-3 = system: SK-OV-3
NCI-H460 = system: NCI-H460
UACC-257 = system: UACC-257
SR = system: SR
T47D = system: T47D
SNB-19 = system: SNB-19
OVCAR-3 = system: OVCAR-3
CCRF-CEM = system: CCRF-CEM
NCI-H226 = system: NCI-H226
DU-145 = system: DU-145
OVCAR-5 = system: OVCAR-5
A549 = system: A549
HCC 2998 = system: HCC 2998
NCI-H23 = system: NCI-H23
HOP-62 = system: HOP-62
COLO 205 = system: COLO 205
MDA-N = system: MDA-N
HCT-116 = system: HCT-116
ACHN = system: ACHN
M14 = system: M14
A498 = system: A498
MDA-MB-435 = system: MDA-MB-435
MCF7 = system: MCF7
HOP-92 = system: HOP-92
SW-620 = system: SW-620
BT-549 = system: BT-549
LOX IMVI = system: LOX IMVI
Malme-3M = system: Malme-3M
MOLT-4 = system: MOLT-4
SK-MEL-5 = system: SK-MEL-5
786-0 = system: 786-0
TK-10 = system: TK-10
UACC-62 = system: UACC-62
RPMI-8226 = system: RPMI-8226
SN12C = system: SN12C
EKVX = system: EKVX
SF-295 = system: SF-295
NCI-H522 = system: NCI-H522
SNB-75 = system: SNB-75
Hs-578T = system: Hs-578T
CAKI-1 = system: CAKI-1
OVCAR-8 = system: OVCAR-8

SMILES: Nc1nc(-[n+]2ccc(-c3ccncc3)cc2)nc(Cl)c1Cl
- GI50 (HL-60): 18.6 µM (inactive)
- GI50 (PC-3): 54.3 µM (inactive)
- GI50 (OVCAR-4): > 100 µM (inactive)
- GI50 (HT-29): 88.5 µM (inactive)
- GI50 (MDA-MB-231): 35.4 µM (inactive)
- GI50 (KM12): 43.6 µM (inactive)
- GI50 (SF-539): 26.8 µM (inactive)
- GI50 (HCT-15): 49.4 µM
- GI50 (NCI/ADR-RES): > 100 µM (inactive)
- GI50 (K562): 29.9 µM (inactive)
- GI50 (RXF 393): 16.5 µM (inactive)
- GI50 (U-251): 35.4 µM (inactive)
- GI50 (UO-31): 32.9 µM (inactive)
- GI50 (SK-MEL-2): 57.4 µM (inactive)
- GI50 (SF-268): 18.4 µM (inactive)
- GI50 (IGROV-1): 17.6 µM (inactive)
- GI50 (SK-MEL-28): 47 µM (inactive)
- GI50 (SK-OV-3): > 100 µM (inactive)
- GI50 (NCI-H460): > 100 µM (inactive)
- GI50 (UACC-257): 20.4 µM (inactive)
- GI50 (SR): 20 µM (inactive)
- GI50 (T47D): 16.5 µM (inactive)
- GI50 (SNB-19): 27 µM (inactive)
- GI50 (OVCAR-3): 17.3 µM (inactive)
- GI50 (CCRF-CEM): 13.9 µM (inactive)
- GI50 (NCI-H226): > 100 µM (inactive)
- GI50 (DU-145): > 100 µM (inactive)
- GI50 (OVCAR-5): > 100 µM (inactive)
- GI50 (A549): > 100 µM (inactive)
- GI50 (HCC 2998): > 100 µM (inactive)
- GI50 (NCI-H23): 22.5 µM (inactive)
- GI50 (HOP-62): 43 µM (inactive)
- GI50 (COLO 205): 36.2 µM (inactive)
- GI50 (MDA-N): > 100 µM (inactive)
- GI50 (HCT-116): > 100 µM (inactive)
- GI50 (ACHN): > 100 µM (inactive)
- GI50 (M14): > 100 µM (inactive)
- GI50 (A498): > 100 µM (inactive)
- GI50 (MDA-MB-435): > 100 µM (inactive)
- GI50 (MCF7): 4.6 µM (inactive)
- GI50 (HOP-92): 23.8 µM (inactive)
- GI50 (SW-620): 25.5 µM (inactive)
- GI50 (BT-549): > 100 µM (inactive)
- GI50 (LOX IMVI): 15 µM (inactive)
- GI50 (Malme-3M): 34.9 µM (inactive)
- GI50 (MOLT-4): 18.9 µM (inactive)
- GI50 (SK-MEL-5): > 100 µM (inactive)
- GI50 (786-0): 13.5 µM (inactive)
- GI50 (TK-10): 26.3 µM (inactive)
- GI50 (UACC-62): > 100 µM (inactive)
- GI50 (RPMI-8226): 17.2 µM (inactive)
- GI50 (SN12C): 20.3 µM (inactive)
- GI50 (EKVX): 26.6 µM (inactive)

SMILES: O=C1C(Cl)=C(Nc2ccc(S(=O)(=O)O)cc2)C(=O)c2ccccc21
- GI50 (HL-60): 26.9 µM (inactive)
- GI50 (PC-3): 23 µM (inactive)
- GI50 (OVCAR-4): 38.5 µM (inactive)
- GI50 (HT-29): > 100 µM (inactive)
- GI50 (MDA-MB-231): 60.7 µM (inactive)
- GI50 (KM12): 22 µM (inactive)
- GI50 (SF-539): 19.9 µM (inactive)
- GI50 (HCT-15): 35.2 µM
- GI50 (SF-295): 33.6 µM (inactive)
- GI50 (NCI/ADR-RES): > 100 µM (inactive)
- GI50 (NCI-H522): 18.2 µM (inactive)
- GI50 (K562): 28.2 µM (inactive)
- GI50 (RXF 393): 19.7 µM (inactive)
- GI50 (U-251): 36.8 µM (inactive)
- GI50 (UO-31): 15 µM (inactive)
- GI50 (SK-MEL-2): 23.7 µM (inactive)
- GI50 (SF-268): 39.3 µM (inactive)
- GI50 (IGROV-1): 20 µM (inactive)
- GI50 (SK-MEL-28): 32.1 µM (inactive)
- GI50 (NCI-H460): 33.6 µM (inactive)
- GI50 (UACC-257): 40 µM (inactive)
- GI50 (SR): 32.6 µM (inactive)
- GI50 (SNB-19): 24.6 µM (inactive)
- GI50 (OVCAR-3): 20.8 µM (inactive)
- GI50 (CCRF-CEM): 26.7 µM (inactive)
- GI50 (NCI-H226): 34.4 µM (inactive)
- GI50 (DU-145): 16.3 µM (inactive)
- GI50 (OVCAR-5): > 100 µM (inactive)
- GI50 (A549): 21.9 µM (inactive)
- GI50 (HCC 2998): 95.9 µM (inactive)
- GI50 (NCI-H23): 37.7 µM (inactive)
- GI50 (HOP-62): 36.2 µM (inactive)
- GI50 (SNB-75): 67.8 µM (inactive)
- GI50 (COLO 205): 17.4 µM (inactive)
- GI50 (HCT-116): 52.6 µM (inactive)
- GI50 (ACHN): 22 µM (inactive)
- GI50 (M14): 21.4 µM (inactive)
- GI50 (Hs-578T): 24 µM (inactive)
- GI50 (MDA-MB-435): 21.7 µM (inactive)
- GI50 (MCF7): 20.9 µM (inactive)
- GI50 (HOP-92): 17.3 µM (inactive)
- GI50 (SW-620): 22 µM (inactive)
- GI50 (BT-549): 76.2 µM (inactive)
- GI50 (LOX IMVI): 30.3 µM (inactive)
- GI50 (Malme-3M): 20.1 µM (inactive)
- GI50 (MOLT-4): 42.1 µM (inactive)
- GI50 (SK-MEL-5): 13.4 µM (inactive)
- GI50 (CAKI-1): 39.5 µM (inactive)
- GI50 (786-0): 27.2 µM (inactive)
- GI50 (TK-10): 22.1 µM (inactive)
- GI50 (UACC-62): 64.4 µM (inactive)
- GI50 (OVCAR-8): 30.1 µM (inactive)
- GI50 (RPMI-8226): 24.7 µM (inactive)
- GI50 (EKVX): 15.7 µM (inactive)
